SMILES strings stand for the structures. pEC50: −log10 of the molar value. Several values for one entry are separate records, joined by “and”; a condition that tells them apart may be missing. Equal values may be shown once. Activity calls are given as the source filed them.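 Rule for the calls: active = compounds whose fitted half-maximal concentration for changing the GFP signal is at or below a set limit; inactive = the rest.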

Tested on in the first assay: not listed separately
Put plainly: TOR pathway RPL19A-GFP modulators, concentration series – cell-based, S. cerevisiae, flow cytometry, MLPCN hits, dose response (AID 2740).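 For GFP fluorescence, lower = active: background is signal of the same compound in parental non-GFP s288c yeast.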 As to conditions: S. cerevisiae RPL19A-GFP strain, flow cytometry fluorescence, 3 h; at 33 µM (top of the series).
Consider `O=C(OCC(=O)N1CCN(C(=O)c2ccco2)CC1)c1cc(-c2ccc(F)cc2)nc2ccccc12`, for which the GFP fluorescence, lower = active (kMESF (background-subtracted)) was 32.3 (inactive).

The test system of the next assay is S. cerevisiae RPL19A-GFP strain, flow cytometry fluorescence, 3 h. The description is as above.
Conditions: not given
Turning to `C[C@@H]1C[C@@H]([C@H](O)CC2CC(=O)NC(=O)C2)C(=O)[C@@H](C)C1`, the pEC50 is 6.19.
Consider `C/C(=N\NC(=O)c1cccc(Br)c1)c1ccccn1`, for which the negative logarithm of the EC50 (pEC50) was 4.68.
For `COc1cccc2cc(-c3nc4ccccc4o3)c(=O)oc12`, the negative-log EC50 (pEC50) was 5.95.
Consider `C#CCOCCOCCOCCNc1nc(N2CCN(C(=O)CCCCCCCCCCNC(=O)[C@@H](CCC(=O)O)n3cc(CCCCCN)nn3)CC2)nc(N2CCN(C(=O)CCCCCCCCCCNC(=O)[C@H](CCCCN)n3cc(C[C@@H](C)CC)nn3)CC2)n1`, for which the pEC50 is 4.96.
With `CSc1nnc2c3cc(F)ccc3n(C)c2n1`, the pEC50 was 5.92.
On to `COc1ccc(N/N=C(\C#N)C(N)=O)cc1`, for which the pEC50 is 5.53.
`CC(Oc1ccc(Br)cc1)C(=O)Nc1nc(-c2ccccn2)cs1` (stereo unspecified): the negative-log EC50 (pEC50) was 4.69.
For `O=C1c2sc3nc4ccccc4n3c2C(=O)N1c1ccccc1Cl`, the pEC50 is 4.72.
For the compound `O=C1NC(=O)C(=Cc2ccc(-c3ccc(Cl)cc3)o2)C(=O)N1`, the pEC50 was 5.17.
The same measure, in the same setting: in the case of `Cc1ccc(NN2C(=O)C=C(c3ccc(Cl)cc3)C2=O)cc1` it was 5.89; in that of `CC(C)(C)n1nc(-c2ccc(F)cc2)c2c(N)ncnc21`, 6.01.
On the same count and under the same terms, in the case of `O=C1Oc2ccccc2C(=O)/C1=C/c1ccccc1O` it was 4.96; in that of `CC(=O)Nc1ncnc2c1c(-c1ccc(Cl)cc1)nn2C(C)(C)C`, 5.22; in that of `O=C1C2C3C=CC(CO)(O3)C2C(=O)N1c1ccc(-c2ccccc2)cc1` (stereo unspecified), 4.99.
As to `O=C1C=CC(=O)N1c1cccc(-c2ccccc2)c1`, the negative logarithm of the EC50 (pEC50) was 5.57.
In the case of `CCOC(=O)c1c(C)oc2c1c(C(c1ccncc1)N1CCOCC1)c(O)c1ccccc12` (stereo unspecified), the negative-log EC50 (pEC50) is 4.93.
Regarding `CCCCS(=O)(=O)/C=C\C=C/S(=O)(=O)CCCC`, the pEC50 was 4.90.
In the case of `O=[N+]([O-])c1ccc(O)c(/C=N/Nc2ccccn2)c1`, the pEC50 is 4.78.
Still for that read-out and setting: next, `CCOC(=O)COc1ccc2ccccc2c1/C=C/[N+](=O)[O-]`: 5.27.
For the compound `CCOC(=O)c1c(C)oc2c1c(C(c1cccnc1)N1CCOCC1)c(O)c1ccccc12` (stereo unspecified), the negative logarithm of the EC50 (pEC50) is 4.86.
`Cc1ccc(/C=C2\C(=O)NC(=S)N(c3ccccc3F)C2=O)s1`: the pEC50 was 5.87.
Still for that read-out and setting: next, `O=[N+]([O-])c1cc(Cl)cc(/C=N\Nc2ccccn2)c1O`: 5.10.
Regarding `CC(Oc1ccc(Cl)cc1)C(=O)NNC(=S)NC(=O)c1ccco1` (stereo unspecified), the negative-log EC50 (pEC50) was 4.96.
On the same count and under the same terms, in the case of `Cn1ncc2c(O/N=C(\N)c3ccc(C(C)(C)C)cc3)ncnc21` it was 4.89; in that of `Cc1nn2c(-c3ccncc3)nnc2c2ccccc12`, 5.48; in that of `C#CCOCCOCCOCCNc1nc(N2CCN(C(=O)CCCCCCCCCCNC(=O)[C@H](CCCCN)n3cc(CCO)nn3)CC2)nc(N2CCN(C(=O)CCCCCCCCCCNC(=O)[C@H](CCCN=C(N)N)n3cc(C[C@@H](C)CC)nn3)CC2)n1`, 5.00.
Consider `COc1ccc2c(c1)S/C(=C\C(=O)c1ccncc1)N2C`, for which the negative logarithm of the EC50 (pEC50) was 5.40.
`Nc1ccc(Br)c2c1C(=O)c1ccccc1C2=O`: the pEC50 is 5.50.
On the same count and under the same terms, next, `CCCCCCCCn1sccc1=O`: 4.92.
For `Cc1ccc(NC(=O)c2cc(N3C(=O)C=CC3=O)ccc2N2CCOCC2)cc1Cl`, the pEC50 was 5.40.
In the case of `O=C1C=C(c2ccccc2)C(=O)N1Nc1ccccc1`, the pEC50 was 5.41.
Take `O=C(OCC(=O)N1CCN(C(=O)c2ccco2)CC1)c1cc(-c2ccccc2)nc2ccccc12`: the negative-log EC50 (pEC50) is 5.16 and 5.41.
For `O=C(Nc1ccc(Cl)cc1)ON=C1CCCC1`, the negative logarithm of the EC50 (pEC50) was 4.97.
Take `O=C1C=CC(=O)N1c1ccc(Sc2ccc([N+](=O)[O-])cc2)cc1`: the negative-log EC50 (pEC50) was 4.99.
Still for that read-out and setting: next, `CCOC(=O)/C(=C\c1cn(C)c2ccccc12)[N+](=O)[O-]`: 5.31.
Still for that read-out and setting: in the case of `CCn1c(=O)c(C(=O)Nc2nc3ccccc3[nH]2)c(O)c2ccccc21` it was 5.48; in that of `C#CCOCCOCCOCCNc1nc(N2CCN(C(=O)CCCCCCCCCCNC(=O)[C@H](CCCCN)n3cc(CCO)nn3)CC2)nc(N2CCN(C(=O)CCCCCCCCCCNC(=O)[C@H](CCCCN)n3cc(C[C@@H](C)CC)nn3)CC2)n1`, 5.00.
Turning to `COc1ccc2c(c1)c1nnc(SC)nc1n2C`, the pEC50 is 6.17.
With `Cc1ccc(N/N=C(\C#N)C(N)=S)c(C)c1`, the pEC50 is 5.30.
Regarding `CCOC(=O)c1cc(-c2ccc(/C=C3/C(=O)NC(=O)C(C#N)=C3C)o2)ccc1Cl`, the pEC50 is 5.47.
Still for that read-out and setting: in the case of `COc1ccc(N2C(=O)/C(=C/c3cccs3)C(=O)NC2=S)cc1` it was 5.11; in that of `CN1CCN(C(=O)c2cc(COc3c(F)cccc3F)on2)CC1c1ccccc1` (stereo unspecified), 5.10; in that of `CC(C)(C)c1ccc(NC(=O)COC(=O)c2ccc([N+](=O)[O-])s2)cc1`, 5.01.
Regarding `O=C(OCC(=O)N1CCN(C(=O)c2ccco2)CC1)c1cc(-c2ccc(F)cc2)nc2ccccc12`, the negative logarithm of the EC50 (pEC50) was 5.30.
With `CNc1nc(N)c([N+](=O)[O-])c(Nc2cccc(F)c2)n1`, the negative-log EC50 (pEC50) is 5.13.
Turning to `COc1cc(/C=C/[N+](=O)[O-])ccc1O`, the pEC50 was 4.49.
Consider `N/C(Cc1ccc(Cl)cc1Cl)=N\OC(=O)c1cccs1`, for which the pEC50 was 4.89.
Still for that read-out and setting: in the case of `COc1ccc([N+](=O)[O-])c(S(=O)(=O)c2ccc(Cl)cc2)n1` it was 4.88.
Same read-out and setting: next, `Cc1ccc(S(=O)(=O)c2ccc([N+](=O)[O-])cn2)cc1`: 4.89.
Still for that read-out and setting: in the case of `Cc1ccc(/C=C/C(=O)c2ccccc(=O)c2O)c(C)c1` it was 4.95; in that of `O=[N+]([O-])c1cc(Cl)c2cccnc2c1O`, 4.89; in that of `Cc1ccc(S(=O)(=O)ON2C(=O)c3ccccc3C2=O)c(C)c1`, 4.86.
On to `CCN1/C(=C/C(C)=C/c2sc3ccccc3[n+]2CC)Sc2ccccc21`, for which the negative-log EC50 (pEC50) is 4.95.
On the same count and under the same terms, in the case of `CNC(CC(=O)c1ccc([N+](=O)[O-])cc1)C(Cl)(Cl)Cl` (stereo unspecified) it was 5.18; in that of `COc1cccc2sc(Nc3nc(-c4ccccn4)cs3)nc12`, 5.42.

(Values after PubChem BioAssay AID2740 (NMMLSC, 2010).)
